What follows are compounds tested against T1, PIP4K2C (Homo sapiens, UniProt Q8TBX8) (assay: HiBiT PIP4K2C degradation assay in MOLT-4 cells (endogenous PIP4K2C C-terminally tagged with HiBiT)). Details: 6 hours of incubation time, rather than 24 hours; MOLT-4, top concentration 10 micromolar; read-out: HiBIT-degradation MOLT4 PIP4k2C DC50 (6 hours, marked *).
T1 sequence (Q8TBX8 1-421): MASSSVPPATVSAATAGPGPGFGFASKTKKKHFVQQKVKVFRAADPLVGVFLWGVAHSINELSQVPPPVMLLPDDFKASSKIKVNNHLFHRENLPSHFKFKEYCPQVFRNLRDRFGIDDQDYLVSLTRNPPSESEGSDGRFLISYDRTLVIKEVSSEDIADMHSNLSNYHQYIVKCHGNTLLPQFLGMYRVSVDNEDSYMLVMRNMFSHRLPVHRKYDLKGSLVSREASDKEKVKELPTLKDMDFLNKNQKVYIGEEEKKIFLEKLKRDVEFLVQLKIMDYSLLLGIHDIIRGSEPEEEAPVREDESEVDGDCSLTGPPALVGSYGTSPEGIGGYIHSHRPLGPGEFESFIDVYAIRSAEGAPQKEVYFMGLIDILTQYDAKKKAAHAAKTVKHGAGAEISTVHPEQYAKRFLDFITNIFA
Assay type: cell-based
Design: untagged in primary human PBMCs and monocyte-derived dendritic cells
Source text: Example B-2: HiBiT PIP4K2C degradation assay
Materials: MOLT-4, a human T lymphoblast cell line (see https://www.atcc.org/products/crl-1582, herein incorporated by reference in its entirety), was genetically engineered using CRISPR-Cas9 by Synthego Corporation (Redwood City, CA) to C-terminally tag endogenous PIP4K2C with HiBiT peptide. Following clonal selection, genotype was confirmed by Sanger sequencing. MO LT-4 were maintained using RPMI-1640 medium from Gibco (Grand Island, NY, catalog number 11875-085) supplemented with 10% fetal bovine serum (FBS) from VWR (Philadelphia, PA, catalog number 97068-085). For HiBiT assays the cells were resuspended in RPMI-1640 medium without phenol read from Gibco (Grand Island, NY, catalog number 11835-030) supplemented with 10% FBS. Nano-Glo® HiBiT Lytic Assay System was purchased from Promega (Madison, WI, Catalog number N3030). Cell culture flasks and 384-well microplates were purchased from Corning (Glendale, AZ).
To study PIP4K2C degradation, 384-well plates were plated with a 10-point dose response curve, 3-fold dilution, in duplicate with a top starting concentration of 10 micromolar. Subsequently 22,500 cells were added to each well and incubated at 37 C in 5% C02 for 24 hours or 6 hours. At the end of the incubation time, cells were treated with the Nano-Glo® HiBiT Lytic Detection System following the manufacturer's instructions. Luminescence was measured with a PHERAstar FSX plate reader (BMG Labtech, Cary, NC). The Levenberg-Marquardt algorithm was used to fit a Hill equation to dose-response data to calculate DC50 values (see Table 6).

SMILES | DC50
O=C1CCC(Nc2ccc(N3CCN(CC4(O)CCN(C(=O)[C@H]5CC[C@H](Nc6ncc(F)c(-c7cccc(-c8ccc[nH]c8=O)c7)n6)CC5)CC4)CC3)c(F)c2)C(=O)N1 (stereo partly drawn) [Compound 584, trans-3-((3-fluoro-4-(4-((1-(4-((5-fluoro-4-(3-(2-oxo-1,2-dihydropyridin-3-yl)phenyl)pyrimidin-2-yl)amino)cyclohexane-1-carbonyl)-4-hydroxypiperidin-4-yl)methyl)piperazin-1-yl)phenyl)amino)piperidine-2,6-dione] | > 5000 nM
Cn1nc([C@@H]2CCC(=O)NC2=O)c2ccc(C3CCN(CC4CCN(C(=O)[C@H]5CC[C@H](Nc6ncc(F)c(-c7cccc(-n8ccccc8=O)c7)n6)CC5)CC4)CC3)cc21 (single isomer, unassigned) [Compound 438] | < 500 nM
O=C1CCC(Nc2ccc(N3CCN([C@H]4CC[C@H](C(=O)N[C@H]5CC[C@H](Nc6ncc(F)c(-c7cccc(-c8ccc[nH]c8=O)c7)n6)CC5)CC4)CC3)c(F)c2)C(=O)N1 (stereo partly drawn) [Compound 450, trans-4-(4-(4-((2,6-dioxopiperidin-3-yl)amino)-2-fluorophenyl)piperazin-1-yl)-N-(trans-4-((5-fluoro-4-(3-(2-oxo-1,2-dihydropyridin-3-yl)phenyl)pyrimidin-2-yl)amino)cyclohexyl)cyclohexane-1-carboxamide] | < 500 nM
O=C1CCC(Nc2ccc(N3CCC(N4CCC(NC(=O)[C@H]5CC[C@H](Nc6ncc(F)c(-c7cccc(-c8ccc[nH]c8=O)c7)n6)CC5)CC4)C(F)(F)C3)c(F)c2)C(=O)N1 (stereo partly drawn) [Compound 451, trans-N-(1′-(4-((2,6-dioxopiperidin-3-yl)amino)-2-fluorophenyl)-3′,3′-difluoro-[1,4′-bipiperidin]-4-yl)-4-((5-fluoro-4-(3-(2-oxo-1,2-dihydropyridin-3-yl)phenyl)pyrimidin-2-yl)amino)cyclohexane-1-carboxamide] | < 500 nM

Now from value to compound:

DC50 | SMILES
< 500 nM | O=C1CCC(Nc2ccc(C3CCN([C@H]4CC[C@H](NC(=O)[C@H]5CC[C@H](Nc6ncc(F)c(-c7cccc(-c8ccccc8)c7)n6)CC5)CC4)CC3)c(F)c2)C(=O)N1 (stereo partly drawn) [Compound 658, trans-(1r,4R)-4-((4-([1,1′-biphenyl]-3-yl)-5-fluoropyrimidin-2-yl)amino)-N-((1r,4R)-4-(4-(4-((2,6-dioxopiperidin-3-yl)amino)-2-fluorophenyl)piperidin-1-yl)cyclohexyl)cyclohexane-1-carboxamide]
< 500 nM | O=C1CCC(Nc2ccc(C3CCN(CC4CCN(C(=O)[C@H]5CC[C@H](Nc6ncc(F)c(-c7cccc(-c8ccc[nH]c8=O)c7)n6)CC5)CC4)CC3)c(F)c2)C(=O)N1 (stereo partly drawn) [Compound 384, trans-3-((3-fluoro-4-(1-((1-(4-((5-fluoro-4-(3-(2-oxo-1,2-dihydropyridin-3-yl)phenyl)pyrimidin-2-yl)amino)cyclohexane-1-carbonyl)piperidin-4-yl)methyl)piperidin-4-yl)phenyl)amino)piperidine-2,6-dione]
< 500 nM | O=C1CCC(Nc2ccc(N3CCC(N4CCC(NC(=O)[C@H]5CC[C@H](Nc6ncc(F)c(-c7cccc(C8CC8)c7)n6)CC5)CC4)CC3)c(F)c2)C(=O)N1 (stereo partly drawn) [Compound 533, trans-4-((4-(3-cyclopropylphenyl)-5-fluoropyrimidin-2-yl)amino)-N-(1′-(4-((2,6-dioxopiperidin-3-yl)amino)-2-fluorophenyl)-[1,4′-bipiperidin]-4-yl)cyclohexane-1-carboxamide]
< 500 nM | O=C1CCC(Nc2ccc(N3CCN(CC4(O)CCN(C(=O)[C@H]5CC[C@H](Nc6ncc(F)c(-c7cccc(C8CC8)c7)n6)CC5)CC4)CC3)c(F)c2)C(=O)N1 (stereo partly drawn) [Compound 492, trans-3-((4-(4-((1-(4-((4-(3-cyclopropylphenyl)-5-fluoropyrimidin-2-yl)amino)cyclohexane-1-carbonyl)-4-hydroxypiperidin-4-yl)methyl)piperazin-1-yl)-3-fluorophenyl)amino)piperidine-2,6-dione]
< 500 nM | O=C1CCC(Nc2ccc(N3CCN(CC4(O)CCN(C(=O)[C@H]5CC[C@H](Nc6ncc(F)c(-c7cccc(N8CCOCC8=O)c7)n6)CC5)CC4)CC3)c(F)c2)C(=O)N1 (stereo partly drawn) [Compound 588]
< 500 nM | O=C1CC[C@@H](Nc2ccc(N3CCN([C@H]4CC[C@H](NC(=O)[C@H]5CC[C@H](Nc6ncc(F)c(-c7cccc(-n8ccccc8=O)c7)n6)CC5)CC4)CC3)c(F)c2)C(=O)N1 (single isomer, unassigned) [Compound 420]
< 500 nM | O=C1CC[C@@H](Nc2ccc(N3CCN(C[C@H]4CC[C@H](CNC(=O)[C@H]5CC[C@H](Nc6ncc(F)c(-c7cccc(-n8ccccc8=O)c7)n6)CC5)CC4)CC3)c(F)c2)C(=O)N1 (single isomer, unassigned) [Compound 459]
< 500 nM | O=C1CCC(Nc2ccc(N3CCN([C@H]4CC[C@H](NC(=O)[C@H]5CC[C@H](Nc6ncc(F)c(-c7cccc(C8CC8)c7)n6)CC5)CC4)CC3)c(F)c2)C(=O)N1 (stereo partly drawn) [Compound 557, trans-(1r,4R)-4-((4-(3-cyclopropylphenyl)-5-fluoropyrimidin-2-yl)amino)-N-((1r,4R)-4-(4-(4-((2,6-dioxopiperidin-3-yl)amino)-2-fluorophenyl)piperazin-1-yl)cyclohexyl)cyclohexane-1-carboxamide]
< 500 nM | O=C1CCC(Nc2ccc(C3CCN(C4CCN(C(=O)O[C@H]5CC[C@H](Nc6ncc(F)c(-c7cccc(N8CCCCC8)c7)n6)CC5)CC4)CC3)c(F)c2)C(=O)N1 (stereo partly drawn) [Compound 689, trans-4-((5-fluoro-4-(3-(piperidin-1-yl)phenyl)pyrimidin-2-yl)amino)cyclohexyl 4-(4-((2,6-dioxopiperidin-3-yl)amino)-2-fluorophenyl)-[1,4′-bipiperidine]-1′-carboxylate]
< 500 nM | O=C1CC[C@@H](Nc2ccc(N3CCN([C@H]4CC[C@H](C(=O)N[C@H]5CC[C@H](Nc6ncc(F)c(-c7cccc(N8CCCCC8=O)c7)n6)CC5)CC4)CC3)c(F)c2)C(=O)N1 [Compound 412, trans-(1r,4R)-4-(4-(4-((2,6-dioxopiperidin-3-yl)amino)-2-fluorophenyl)piperazin-1-yl)-N-((1r,4R)-4-((5-fluoro-4-(3-(2-oxopiperidin-1-yl)phenyl)pyrimidin-2-yl)amino)cyclohexyl)cyclohexane-1-carboxamide]

Same assay, conditions: 24 hours incubation, MOLT-4, top concentration 10 micromolar; read-out: HiBIT-degradation MOLT4 PIP4k2C 24 hours DC50

DC50 | SMILES
< 500 nM | O=C1CCC(N2Cc3cc(C4CCN(C5CCN(CC(=O)N6CCC(Nc7ncc(Cl)c(-c8cccc(-c9ccccc9)c8)n7)CC6)CC5)CC4)ccc3C2=O)C(=O)N1 (stereo not drawn) [Compound 71, 3-(5-(1′-(2-(4-((4-([1,1′-biphenyl]-3-yl)-5-chloropyrimidin-2-yl)amino)piperidin-1-yl)-2-oxoethyl)-[1,4′-bipiperidin]-4-yl)-1-oxoisoindolin-2-yl)piperidine-2,6-dione]
< 500 nM | O=C1CCC(n2c(=O)oc3cc(N4CCC(N5CCC(CNC(=O)[C@H]6CCC[C@@H](Nc7ncc(F)c(-c8cccc(-n9ccccc9=O)c8)n7)C6)CC5)CC4)ccc32)C(=O)N1 (relative stereo) [Compound 299, cis-N-((1′-(3-(2,6-dioxopiperidin-3-yl)-2-oxo-2,3-dihydrobenzo[d]oxazol-6-yl)-[1,4′-bipiperidin]-4-yl)methyl)-3-((5-fluoro-4-(3-(2-oxopyridin-1(2H)-yl)phenyl)pyrimidin-2-yl)amino)cyclohexane-1-carboxamide]
< 500 nM | Cn1c(=O)n(C2CCC(=O)NC2=O)c2ccc(C3CCN(CC4CCN(CC(=O)N5CCC(Nc6ncc(Cl)c(-c7cccc(-c8ccccc8)c7)n6)CC5)CC4)CC3)cc21 (stereo not drawn) [Compound 47, 3-(5-(1-((1-(2-(4-((4-([1,1′-biphenyl]-3-yl)-5-chloropyrimidin-2-yl)amino)piperidin-1-yl)-2-oxoethyl)piperidin-4-yl)methyl)piperidin-4-yl)-3-methyl-2-oxo-2,3-dihydro-1H-benzo[d]imidazol-1-yl)piperidine-2,6-dione]

Same assay, conditions: read-out: HiBIT-degradation MOLT4 PIP4k2C DC50 (6 hours, marked *); 6 hours of incubation time, rather than 24 hours; MOLT-4, top concentration 10 micromolar

DC50 | SMILES
> 5000 nM | O=C1CCC(Nc2ccc(N3CCN(C[C@H]4CC[C@H](C(=O)N5CCC(Nc6ncc(F)c(-c7cccc(N8CCOCC8)c7)n6)CC5)CC4)CC3)c(F)c2)C(=O)N1 (stereo partly drawn) [Compound 670, 3-((3-fluoro-4-(4-((trans-4-(4-((5-fluoro-4-(3-morpholinophenyl)pyrimidin-2-yl)amino)piperidine-1-carbonyl)cyclohexyl)methyl)piperazin-1-yl)phenyl)amino) piperidine-2,6-dione]
